For assay [1], the target named is T1, Alpha-1B adrenergic receptor (Homo sapiens, UniProt P35368).
T1 sequence (P35368 whole entry): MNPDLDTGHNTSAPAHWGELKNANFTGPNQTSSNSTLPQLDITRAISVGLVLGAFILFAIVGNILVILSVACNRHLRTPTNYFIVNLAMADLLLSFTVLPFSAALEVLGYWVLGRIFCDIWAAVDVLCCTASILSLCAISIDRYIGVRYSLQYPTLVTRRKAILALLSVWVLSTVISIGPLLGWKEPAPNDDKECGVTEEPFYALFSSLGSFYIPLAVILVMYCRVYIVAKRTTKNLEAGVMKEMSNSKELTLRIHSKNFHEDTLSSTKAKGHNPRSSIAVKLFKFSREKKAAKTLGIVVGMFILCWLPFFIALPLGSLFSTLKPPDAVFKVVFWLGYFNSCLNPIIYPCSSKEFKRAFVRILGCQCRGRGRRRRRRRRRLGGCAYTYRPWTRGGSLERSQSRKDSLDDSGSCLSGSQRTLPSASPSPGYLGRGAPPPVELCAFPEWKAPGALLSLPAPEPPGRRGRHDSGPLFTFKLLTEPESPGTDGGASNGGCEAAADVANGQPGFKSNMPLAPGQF
The assay is described as follows: Selectivity interaction (Receptors and enzyme panel (internal screening at GSK)) EUB0000215b ADRA1B.

The target of assay [2] is T2, Histone-lysine N-methyltransferase EZH1 (Homo sapiens, UniProt Q92800).
T2 sequence (Q92800 whole entry): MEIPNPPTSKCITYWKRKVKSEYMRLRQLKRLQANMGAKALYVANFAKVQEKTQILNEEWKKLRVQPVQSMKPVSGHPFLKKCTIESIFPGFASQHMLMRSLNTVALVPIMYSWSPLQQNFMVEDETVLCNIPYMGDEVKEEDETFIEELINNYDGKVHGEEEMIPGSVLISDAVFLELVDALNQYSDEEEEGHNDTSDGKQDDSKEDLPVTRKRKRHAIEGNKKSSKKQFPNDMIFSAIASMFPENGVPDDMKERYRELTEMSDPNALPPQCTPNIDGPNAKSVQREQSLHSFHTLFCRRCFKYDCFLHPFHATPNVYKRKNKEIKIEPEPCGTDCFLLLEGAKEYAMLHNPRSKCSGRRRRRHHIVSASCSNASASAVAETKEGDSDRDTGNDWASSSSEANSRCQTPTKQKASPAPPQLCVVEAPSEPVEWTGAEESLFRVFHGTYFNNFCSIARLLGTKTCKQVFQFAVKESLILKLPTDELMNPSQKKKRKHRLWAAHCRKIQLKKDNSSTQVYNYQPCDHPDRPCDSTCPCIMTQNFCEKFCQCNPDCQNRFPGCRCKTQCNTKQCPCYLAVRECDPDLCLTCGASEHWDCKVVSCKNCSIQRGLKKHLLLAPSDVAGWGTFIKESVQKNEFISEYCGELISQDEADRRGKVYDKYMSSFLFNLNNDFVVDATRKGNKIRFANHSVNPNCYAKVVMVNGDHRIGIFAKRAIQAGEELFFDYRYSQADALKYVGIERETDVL
The assay is described as follows: Selectivity interaction (Methyltransferase panel (HotSpot screen, Reaction Biology, radioisotope-based filter binding assays)) EUB0000215b EZH1.

The target of assay [3] is Phosphatidylinositol 3-kinase C2 domain-containing subunit gamma (Homo sapiens) (UniProt O75747). The assay is described as follows: Selectivity interaction (KinomeScan (DiscoverX)) EUB0000007b PIK3C2G. The following applies: at 1 µM.
Phosphatidylinositol 3-kinase C2 domain-containing subunit gamma (Homo sapiens), sequence (O75747 whole entry, the tested form may be a part): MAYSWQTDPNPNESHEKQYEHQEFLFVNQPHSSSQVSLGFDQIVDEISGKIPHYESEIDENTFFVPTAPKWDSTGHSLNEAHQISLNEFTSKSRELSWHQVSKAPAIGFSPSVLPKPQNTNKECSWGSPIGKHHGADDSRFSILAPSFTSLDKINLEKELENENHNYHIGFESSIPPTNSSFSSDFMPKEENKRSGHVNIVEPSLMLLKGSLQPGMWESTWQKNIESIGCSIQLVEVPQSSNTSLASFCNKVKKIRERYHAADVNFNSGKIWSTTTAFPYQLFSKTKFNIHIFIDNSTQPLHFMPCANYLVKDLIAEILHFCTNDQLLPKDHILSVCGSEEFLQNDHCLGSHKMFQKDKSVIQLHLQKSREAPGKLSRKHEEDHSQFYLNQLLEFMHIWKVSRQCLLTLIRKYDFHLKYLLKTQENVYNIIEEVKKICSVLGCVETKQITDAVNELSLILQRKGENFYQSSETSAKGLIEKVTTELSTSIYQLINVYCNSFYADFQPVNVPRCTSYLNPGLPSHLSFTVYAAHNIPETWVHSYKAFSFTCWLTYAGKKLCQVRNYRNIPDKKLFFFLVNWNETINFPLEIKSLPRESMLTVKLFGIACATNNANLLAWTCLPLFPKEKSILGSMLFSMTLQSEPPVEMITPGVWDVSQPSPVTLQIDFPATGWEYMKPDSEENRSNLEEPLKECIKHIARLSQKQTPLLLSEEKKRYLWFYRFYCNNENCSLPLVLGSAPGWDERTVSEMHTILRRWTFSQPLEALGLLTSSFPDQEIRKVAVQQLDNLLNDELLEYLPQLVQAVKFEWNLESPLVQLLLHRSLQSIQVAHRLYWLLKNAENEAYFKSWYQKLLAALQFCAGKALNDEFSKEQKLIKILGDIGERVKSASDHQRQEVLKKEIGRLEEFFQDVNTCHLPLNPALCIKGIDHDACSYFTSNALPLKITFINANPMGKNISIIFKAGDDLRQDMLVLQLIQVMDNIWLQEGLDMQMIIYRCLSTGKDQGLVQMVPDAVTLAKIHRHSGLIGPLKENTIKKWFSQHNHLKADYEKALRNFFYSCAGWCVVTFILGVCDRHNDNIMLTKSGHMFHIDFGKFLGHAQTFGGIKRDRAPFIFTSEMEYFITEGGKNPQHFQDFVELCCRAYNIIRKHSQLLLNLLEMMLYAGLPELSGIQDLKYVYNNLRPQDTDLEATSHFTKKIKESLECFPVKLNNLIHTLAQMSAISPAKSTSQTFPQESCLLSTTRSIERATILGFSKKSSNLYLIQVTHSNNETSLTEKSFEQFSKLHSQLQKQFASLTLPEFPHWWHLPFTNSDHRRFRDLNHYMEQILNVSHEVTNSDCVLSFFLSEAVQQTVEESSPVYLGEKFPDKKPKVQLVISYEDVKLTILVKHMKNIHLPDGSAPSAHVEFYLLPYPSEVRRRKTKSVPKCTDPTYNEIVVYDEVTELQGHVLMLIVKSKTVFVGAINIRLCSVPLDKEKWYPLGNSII
In assay [4] the target is Transcription initiation factor TFIID subunit 1 (Homo sapiens, UniProt P21675). The assay can be described thus: Selectivity interaction (BRD panel (HTRF assay)) EUB0000007b TAF1. A general note: In TR-FRET formats the signal depends on donor and acceptor labels being close together.
The target in assay [5] is Beta-3 adrenergic receptor (Homo sapiens, UniProt P13945). The assay is described as follows: Selectivity interaction (GPCR panel (PDSP screen)) EUB0001135a ADRB3. As to conditions: at 10 µM.
Beta-3 adrenergic receptor, sequence (P13945 whole entry, looked up): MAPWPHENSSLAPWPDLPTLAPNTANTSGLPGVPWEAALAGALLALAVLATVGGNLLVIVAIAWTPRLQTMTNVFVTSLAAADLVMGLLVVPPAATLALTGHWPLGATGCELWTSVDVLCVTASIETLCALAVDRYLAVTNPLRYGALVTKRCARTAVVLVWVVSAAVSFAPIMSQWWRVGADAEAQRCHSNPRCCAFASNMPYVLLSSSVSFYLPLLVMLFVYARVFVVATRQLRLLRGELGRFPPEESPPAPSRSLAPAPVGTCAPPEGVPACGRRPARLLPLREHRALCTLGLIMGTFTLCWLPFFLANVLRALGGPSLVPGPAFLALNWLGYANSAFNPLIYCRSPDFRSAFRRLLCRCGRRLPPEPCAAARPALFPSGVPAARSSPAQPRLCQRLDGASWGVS
The target in assay [6] is Histamine H1 receptor (Homo sapiens, UniProt P35367). The assay is described as follows: Selectivity interaction (GPCR panel (PDSP screen)) EUB0001135a HRH1. The following applies: at 10 µM.
Histamine H1 receptor, sequence (P35367 whole entry): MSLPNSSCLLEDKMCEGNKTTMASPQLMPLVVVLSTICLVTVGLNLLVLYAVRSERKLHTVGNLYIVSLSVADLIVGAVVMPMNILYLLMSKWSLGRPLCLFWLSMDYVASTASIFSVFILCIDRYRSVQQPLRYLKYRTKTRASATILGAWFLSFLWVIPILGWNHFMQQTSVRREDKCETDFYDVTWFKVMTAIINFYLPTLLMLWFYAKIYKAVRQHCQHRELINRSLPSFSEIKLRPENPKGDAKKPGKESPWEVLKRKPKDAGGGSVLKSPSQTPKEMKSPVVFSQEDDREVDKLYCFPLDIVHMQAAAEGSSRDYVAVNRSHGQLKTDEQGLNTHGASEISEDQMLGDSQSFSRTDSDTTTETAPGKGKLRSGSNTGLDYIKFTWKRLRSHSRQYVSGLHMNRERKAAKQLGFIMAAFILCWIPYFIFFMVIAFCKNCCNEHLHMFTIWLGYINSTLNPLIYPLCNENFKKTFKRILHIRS
In assay [7] the target is T3, Death-associated protein kinase 3 (Homo sapiens, UniProt O43293). The assay is described as follows: Selectivity interaction (KinomeScan (DiscoverX, competition-binding assay)) EUB0001135a DAPK3.
Target sequence in this assay (O43293 whole entry): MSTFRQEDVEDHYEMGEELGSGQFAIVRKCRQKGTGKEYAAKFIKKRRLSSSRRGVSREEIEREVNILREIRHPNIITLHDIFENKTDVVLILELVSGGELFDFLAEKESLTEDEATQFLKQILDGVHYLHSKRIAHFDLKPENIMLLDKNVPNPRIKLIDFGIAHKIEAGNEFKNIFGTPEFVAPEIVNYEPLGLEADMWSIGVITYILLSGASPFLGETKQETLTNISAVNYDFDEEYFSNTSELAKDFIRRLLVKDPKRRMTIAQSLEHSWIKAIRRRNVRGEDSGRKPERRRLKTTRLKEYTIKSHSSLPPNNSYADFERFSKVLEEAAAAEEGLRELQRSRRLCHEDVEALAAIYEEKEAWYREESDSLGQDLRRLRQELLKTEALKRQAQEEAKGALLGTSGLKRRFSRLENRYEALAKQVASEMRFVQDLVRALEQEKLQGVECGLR
Assay [8] concerns the target T3, Death-associated protein kinase 3. The assay is described as follows: Selectivity interaction (KinomeScan (DiscoverX)) EUB0001135a DAPK3. The following applies: at 1 µM.
Target sequence in this assay (O43293 whole entry, looked up): as the sequence (O43293 whole entry) above
The target in assay [9] is G protein-coupled receptor kinase 3 (Homo sapiens, UniProt P35626). The assay is described as follows: Selectivity interaction (KinomeScan (DiscoverX, competition-binding assay)) EUB0001135a ADRBK2.
Assay [10] addresses T4, G protein-coupled receptor kinase 3 (Homo sapiens) (UniProt P35626).
T4 sequence (whole entry): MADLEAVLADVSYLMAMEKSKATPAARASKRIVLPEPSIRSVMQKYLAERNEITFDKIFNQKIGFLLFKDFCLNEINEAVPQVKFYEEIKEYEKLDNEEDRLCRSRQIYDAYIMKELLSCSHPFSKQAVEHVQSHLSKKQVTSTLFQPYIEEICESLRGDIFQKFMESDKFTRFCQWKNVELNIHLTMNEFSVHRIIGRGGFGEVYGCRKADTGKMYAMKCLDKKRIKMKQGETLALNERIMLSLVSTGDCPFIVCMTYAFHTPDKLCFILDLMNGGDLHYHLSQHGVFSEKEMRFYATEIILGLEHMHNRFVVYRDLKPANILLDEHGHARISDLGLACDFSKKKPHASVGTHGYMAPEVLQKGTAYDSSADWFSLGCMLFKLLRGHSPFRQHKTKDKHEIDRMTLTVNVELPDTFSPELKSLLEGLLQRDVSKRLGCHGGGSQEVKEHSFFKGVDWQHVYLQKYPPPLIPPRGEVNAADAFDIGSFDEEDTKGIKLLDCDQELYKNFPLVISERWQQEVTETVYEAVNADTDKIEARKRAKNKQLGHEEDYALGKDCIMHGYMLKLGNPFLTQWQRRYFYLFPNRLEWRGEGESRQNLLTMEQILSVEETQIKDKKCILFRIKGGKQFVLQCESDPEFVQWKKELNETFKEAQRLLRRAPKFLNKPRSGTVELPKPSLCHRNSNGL
The assay is described as follows: Selectivity interaction (KinomeScan (DiscoverX)) EUB0001135a ADRBK2. The following applies: at 1 µM.

In assay [11] the target is Sodium-dependent dopamine transporter (Homo sapiens, UniProt Q01959). The assay can be described thus: Selectivity interaction (GPCR panel (PDSP screen)) EUB0000741a SLC6A3.
Sodium-dependent dopamine transporter, sequence (Q01959 whole entry): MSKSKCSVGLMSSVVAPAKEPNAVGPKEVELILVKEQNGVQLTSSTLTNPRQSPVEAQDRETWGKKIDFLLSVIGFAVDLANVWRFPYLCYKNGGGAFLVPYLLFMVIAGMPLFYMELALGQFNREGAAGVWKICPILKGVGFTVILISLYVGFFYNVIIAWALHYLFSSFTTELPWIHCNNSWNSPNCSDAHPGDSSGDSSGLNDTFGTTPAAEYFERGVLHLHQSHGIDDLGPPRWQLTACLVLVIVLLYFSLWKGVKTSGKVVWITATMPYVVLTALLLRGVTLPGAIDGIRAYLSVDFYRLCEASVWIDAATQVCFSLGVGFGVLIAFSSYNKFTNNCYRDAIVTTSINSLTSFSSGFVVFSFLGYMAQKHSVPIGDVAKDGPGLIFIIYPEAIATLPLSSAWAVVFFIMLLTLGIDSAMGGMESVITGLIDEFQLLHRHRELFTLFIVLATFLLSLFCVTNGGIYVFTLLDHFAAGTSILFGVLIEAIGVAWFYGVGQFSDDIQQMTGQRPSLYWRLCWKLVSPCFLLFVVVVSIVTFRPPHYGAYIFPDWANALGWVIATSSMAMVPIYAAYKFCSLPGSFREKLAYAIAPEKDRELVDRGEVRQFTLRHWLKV

Experimental findings from ChEMBL document CHEMBL5212743, “Selectivity Literature for EUbOPEN Chemogenomics Library wave 3” (2023) are described below.

What is called IC50 is the concentration that gives 50% inhibition. A lower IC50 goes with greater potency. Take `CCCc1cc(C)[nH]c(=O)c1CNC(=O)c1cc(-c2ccnc(N3CCN(C)CC3)c2)cc2c1cnn2C(C)C`: the IC50 in assay [1] worked out at 10 µM; in assay [2], 0.24 µM.

In turn, `CN(C)C(=O)/C(C#N)=C/c1ccc(-c2nc3cnc4c(ccn4C)c3n2C2CCCCC2)o1` had a % of control in assay [3] of 82%. Half-maximal inhibition in assay [4] (IC50) was put at 0.17 µM.

For orientation: Kd means the concentration at which binding is half-saturated. For `O=C1NC(c2ccccn2)Sc2ccccc21` (stereo unspecified) [BTZO-4], the % of inhibition turned out to be 32.4% in assay [5] and 49.9% in assay [6]. In addition, the Kd in [7] and in [9] was above 10 µM each time. Also, the % of control in assay [8] is 0%; in assay [10], 42%.

The Ki is a dissociation constant, usually derived from enzyme kinetics or from competition with a known ligand. Read a low Ki as a stronger hold on the target. In turn, `CC(C)(C)OC(=O)N1CCCC1CNC1CCC(c2cc(F)ccc2F)(S(=O)(=O)c2ccc(Cl)cc2)CC1` (stereo unspecified) [GSI-NC] returned a Ki in assay [11] above 10 µM.
